Assay results taken from ChEMBL document CHEMBL1122015, “Rigid analogues of dopamine: synthesis and interaction of 6-exo- and 6-endo-(3',4'-dihydroxyphenyl)-2-azabicyclo[2.2.2]octanes with dopamine uptake sites and receptors” (J Med Chem, 1982).

Legend:
Rattus norvegicus [1] = species: Rattus norvegicus; experiment: Effect on DA-sensitive adenylate cyclase activity in rat striatal homogenates; assay type: functional
Rattus norvegicus [2] = species: Rattus norvegicus; experiment: Reported to half-maximally effective concentration of reserpine-pretreated rat
Rattus norvegicus [3] = species: Rattus norvegicus; experiment: Inhibition of the uptake of [3H]DA by corpus striatum synaptosomes of reserpine-pretreated rat; assay type: functional

Compound	Activity (Rattus norvegicus [1]) [%]	IC50 (Rattus norvegicus [3]) [µM]	also measured
NCCc1ccc(O)c(O)c1	210		
N[C@H]1C[C@@H]1c1ccccc1 (racemic)			IC50 (Rattus norvegicus [2]): 1.7 µM; IC50 (Rattus norvegicus [3]; Rattus norvegicus, Corpus striatum): 0.9 µM
Oc1ccc([C@H]2CC3CC[C@H]2NC3)cc1O (relative stereo) [listing 1 of 2 here]		32	
Oc1ccc([C@H]2CC3CC[C@H]2NC3)cc1O (relative stereo) [listing 2 of 2 here]	93		
Oc1ccc([C@H]2CC3CC[C@H]2NC3)cc1O (stereo in doubt; 1) [listing 1 of 2 here]		110	
Oc1ccc([C@H]2CC3CC[C@H]2NC3)cc1O (stereo in doubt; 1) [listing 2 of 2 here]	117		
